The test system of the data set is human maximum recommended daily dose, FDA database. The experiment in a line: DSSTox (FDAMDD) FDA Maximum (Recommended) Daily Dose Database. As to conditions: hits give low values. An excerpt: The Food and Drug Administration (FDA) Center for Drug Evaluation and Research, Office of Pharmaceutical Science, Informatics and Computational Safety Analysis Staff's Maximum Recommended Daily Dose (FDAMDD) database contains values for over 1200 pharmaceuticals listed in Martindale: The Extra Pharmacopoeia (1973, 1983, and 1993) and The Physicians' Desk Reference (1995 and 1999). Some classes of chemicals were excluded from the FDAMDD database due to their unsuitability for most QSAR modeling programs. These were inorganic chemicals, high molecular weight polymers (>5000 Daltons), fibers, salts, mixtures of organic chemicals, and small molecules (<100 Daltons). FDAMDD is the non-proprietary portion of the database that was used in the QSAR analysis reported in the Main Citation. DSSTox FDAMDD has fewer substance records than the original MRDD Source database due to consolidation of partial structures (i.e., complexed entities) into a single record and elimination of duplicate entries. DSSTox FDAMDD also differs from the MRDD Source database in presenting complete structural information pertaining to the actual salt or complexed form corresponding to the listed ChemicalName and CASRN. According to the Source authors, there are a number of cases where multiple related forms or derivatives of a drug were listed as separate records but were assumed to fall under the same clinical toxicity assessment and, therefore, assigned the same Dose_MRDD_mg activity value. For the DSSTox FDAMDD, we have labeled these derivatives in the ChemClass_MRDD_grouping field and provide their counts in the ChemicalReplicateCount field to highlight their special nature.
Maximum recommended daily dose (or maximum recommended therapeutic dose) values were determined from pharmaceutical clinical trials that employed an oral route of exposure and daily treatments, usually for 3-12 months. Drugs were given as single or divided dose treatment regimens to achieve desired pharmacological effects. Roughly 5% of the pharmaceuticals in the FDAMDD data file were antineoplastics and anesthetics and were administered intravenously and/or intramuscularly. When separate MRDDs were reported for different routes of exposure, only the oral MRDD was included in the data file and only MRDD values reported for the average adult patient were used. Pharmaceuticals that are administered orally are usually tested over a limited range of doses and have MRDDs reported as mg/day. The mg/day unit was converted to mg/kg-body weight (bw)/day based upon an average adult weighing 60 kg. In contrast, the dose unit for most antineoplastic drug MRDDs is reported as mg/m2 which was converted to mg/kg-bw/day using the formula mg/kg-bw/day = mg/m2/37 for an average adult. Additionally, a few drugs had MRDDs reported in parts per million (ppm) which were converted to mg/kg-bw/day on the basis that 1000 ppm equals 25 mg/kg-bw/day for an average 60 kg adult. Activity Score is mapping of LOG10(1/Dose_MRDD_mmol) spanning activity range [MIN, MAX] onto Integer 1-100 Activity range, where 100 is highest potency and 1 is lowest potency: ActivityScore = 100 * INTEGER[(LOGINV_MRDD_mmol - MIN)/(MAX […] MIN)]. Activity Outcome is "active" for all substances, since Dose_MRDD_mmol is reported for all substances.

The mark [1] stands for this setting: TherapeuticCategory: antibacterial.
Setting [2] is: TherapeuticCategory: antidepressant.
Where [3] appears, read: TherapeuticCategory: diagnostic aid.
The mark [4] stands for this setting: TherapeuticCategory: antihypertensive.
[5] abbreviates: TherapeuticCategory: cardiotonic.
The mark [6] stands for this setting: TherapeuticCategory: sedative, hypnotic.
[7] abbreviates: TherapeuticCategory: antihypertensive, antianginal.
Setting [8] is: TherapeuticCategory: antineoplastic.

Turning to `CC[N+](CC)(CC)CCOc1cccc(OCC[N+](CC)(CC)CC)c1OCC[N+](CC)(CC)CC`, under “TherapeuticCategory: skeletal muscle relaxant”, the maximum recommended daily dose (mmol/kg-bw/day) was 0.00224.

`C[C@@H]1C[C@H]2[C@@H]3CCC4=CC(=O)C=C[C@]4(C)[C@@]3(Cl)[C@@H](O)C[C@]2(C)[C@@]1(OC(=O)c1ccco1)C(=O)CCl`: the maximum recommended daily dose (mmol/kg-bw/day) (TherapeuticCategory: topical anti inflammatory) is 2.88e-05.

Take `NC(Cc1ccccc1)C(=O)O` (stereo not drawn): the maximum recommended daily dose (mmol/kg-bw/day) under setting [1] is 0.605.

For the compound `Cc1cc(C(=O)NNCc2ccccc2)no1`, under setting [2], the maximum recommended daily dose (mmol/kg-bw/day) was 0.00432.

`CN/C(=C\[N+](=O)[O-])NCCSCc1csc(CN(C)C)n1`: the maximum recommended daily dose (mmol/kg-bw/day) (TherapeuticCategory: antiulcerative) is 0.0151.

For `CC(=O)Nc1nnc(S(N)(=O)=O)s1`, the maximum recommended daily dose (mmol/kg-bw/day) (TherapeuticCategory: carbonic anhydrase inhibitor, diuretic) is 0.0751.

For the compound `CC(C)C[C@H]1C(=O)N2CCC[C@H]2[C@]2(O)O[C@](NC(=O)[C@@H]3C=C4c5cccc6[nH]c(Br)c(c56)C[C@H]4N(C)C3)(C(C)C)C(=O)N12`, where the note is “TherapeuticCategory: enzyme inhibitor, antiparkinsonian”, the maximum recommended daily dose (mmol/kg-bw/day) was 0.00255.

As to `Oc1ccc2c3c1O[C@H]1[C@@H](O)CC[C@@]4(O)[C@@H](C2)N(CC2CCC2)CC[C@]314`, the maximum recommended daily dose (mmol/kg-bw/day) (TherapeuticCategory: narcotic analgesic) is 0.0028.

For the compound `C[C@]12CC[C@H](O)CC1=CC[C@@H]1[C@@H]2CC[C@]2(C)C(=O)CC[C@@H]12`, the maximum recommended daily dose (mmol/kg-bw/day) (TherapeuticCategory: androgen) was 0.0115.

For `N=C(N)c1ccc(N=NNc2ccc(C(=N)N)cc2)cc1` (tested in a mixture with another compound), for the setting “TherapeuticCategory: antiprotozoal”, the maximum recommended daily dose (mmol/kg-bw/day) is 0.0097.

With `CN(C)C=Nc1c(I)cc(I)c(CCC(=O)O)c1I`, the maximum recommended daily dose (mmol/kg-bw/day) under setting [3] is 0.167.

For `COc1ccccc1OCC1CNC(=O)O1` (stereo not drawn), the maximum recommended daily dose (mmol/kg-bw/day) (TherapeuticCategory: anxiolytic, skeletal muscle relaxant) is 0.0896.

For the compound `N[C@@H]1CONC1=O`, the maximum recommended daily dose (mmol/kg-bw/day) under setting [1] was 0.164.

In the case of `Oc1cc(O)c2c(c1)O[C@H](c1ccc(O)c(O)c1)[C@@H](O)C2`, the maximum recommended daily dose (mmol/kg-bw/day) (TherapeuticCategory: hepatoprotectant, antidiarrheal) was 0.115.

For the compound `O=P(O)(O)C(O)(Cc1cccnc1)P(=O)(O)O`, the maximum recommended daily dose (mmol/kg-bw/day) (TherapeuticCategory: antiosteoporotic, Ca regulator, Ca channel blocker) is 0.000294.

For `CCCc1c2oc(C(=O)O)cc(=O)c2cc2c(=O)cc(C(=O)O)n(CC)c12`, under “TherapeuticCategory: antiallergic, antiasthmatic”, the maximum recommended daily dose (mmol/kg-bw/day) was 0.000627.

Regarding `CCCCCCC(=O)OCCN1CCN(CCCN2c3ccccc3Sc3ccc(C(F)(F)F)cc32)CC1`, the maximum recommended daily dose (mmol/kg-bw/day) (TherapeuticCategory: antispsychotic) was 0.000606.

Turning to `COCC(=O)O[C@]1(CCN(C)CCCc2nc3ccccc3[nH]2)CCc2cc(F)ccc2[C@@H]1C(C)C`, the maximum recommended daily dose (mmol/kg-bw/day) (TherapeuticCategory: antihypertensive, Ca channel blocker) is 0.00337.

As for `Cc1nccn1CC1CCc2c(c3ccccc3n2C)C1=O` (stereo not drawn), the maximum recommended daily dose (mmol/kg-bw/day) (TherapeuticCategory: antiemetic) was 0.00136.

Turning to `CCCC(=O)N1CCCN(c2nc(N)c3cc(OC)c(OC)cc3n2)CC1`, the maximum recommended daily dose (mmol/kg-bw/day) under setting [4] was 0.000134.

`O=C1CN(/N=C/c2ccc([N+](=O)[O-])o2)C(=O)N1`: the maximum recommended daily dose (mmol/kg-bw/day) under setting [1] was 0.028.

Turning to `CN[C@@H]1[C@@H](O)[C@@H](O[C@@H]2[C@@H](O)[C@H](OC3OC(CN)=CCC3N)[C@@H](N)C[C@H]2N)OC[C@]1(C)O` (stereo partly drawn), the maximum recommended daily dose (mmol/kg-bw/day) under setting [1] was 0.0067.

For the compound `C[C@@H]1O[C@@H](O[C@@H]2C=C3CC[C@@H]4[C@H](CC[C@]5(C)[C@@H](c6ccc(=O)oc6)CC[C@]45O)[C@@]3(C)CC2)[C@H](O)[C@H](O)[C@H]1O`, the maximum recommended daily dose (mmol/kg-bw/day) under setting [5] is 7.86e-05.

For `O=C(c1ccc(F)cc1)C1CCN(CCn2c(=O)[nH]c3ccccc3c2=O)CC1`, the maximum recommended daily dose (mmol/kg-bw/day) under setting [4] is 0.00336.

Turning to `COc1cc2c3cc1Oc1cc(ccc1O)C[C@@H]1c4c(cc(OC)c(O)c4Oc4ccc(cc4)C[C@@H]3N(C)CC2)CC[N+]1(C)C`, the maximum recommended daily dose (mmol/kg-bw/day) (TherapeuticCategory: skeletal muscle relaxant, diagnostic aid) is 0.000979.

Turning to `C=CCC1(C(C)CC)C(=O)NC(=O)NC1=O` (stereo not drawn), the maximum recommended daily dose (mmol/kg-bw/day) under setting [6] is 0.0148.

In the case of `COC(=O)C1=C(C)NC(C)=C(C(=O)OC(C)C)C1c1cccc2nonc12` (stereo not drawn), the maximum recommended daily dose (mmol/kg-bw/day) under setting [7] was 0.00045.

For the compound `Cc1c(C)c2c(c(C)c1O)CCC(C)(COc1ccc(CC3SC(=O)NC3=O)cc1)O2` (stereo not drawn), under “TherapeuticCategory: antidiabetic”, the maximum recommended daily dose (mmol/kg-bw/day) was 0.0226.

For `O=NN(CCCl)C(=O)NCCCl`, the maximum recommended daily dose (mmol/kg-bw/day) under setting [8] was 0.000389.

For `CN(C)CCO`, the maximum recommended daily dose (mmol/kg-bw/day) under setting [2] is 0.168.

Consider `CC1(C)S[C@@H]2[C@H](N3C(=O)C(c4ccccc4)NC3(C)C)C(=O)N2[C@H]1C(=O)O` (stereo partly drawn), for which the maximum recommended daily dose (mmol/kg-bw/day) under setting [1] was 0.0855.

On to `COc1cc2c(cc1OC)C(Cc1cc(OC)c(OC)c(OC)c1)[N+](C)(CCCOC(=O)CC/C=C/CCC(=O)OCCC[N+]1(C)CCc3cc(OC)c(OC)cc3C1Cc1cc(OC)c(OC)c(OC)c1)CC2` (stereo not drawn), for which the maximum recommended daily dose (mmol/kg-bw/day) (TherapeuticCategory: skeletal muscle relaxant, neuromuscular blocker) is 0.000227.

Turning to `CCc1c(C)[nH]c2c1C(=O)C(CN1CCOCC1)CC2` (stereo not drawn), the maximum recommended daily dose (mmol/kg-bw/day) (TherapeuticCategory: antipsychotic) was 0.0136.

For `C=CCC1(C(C)C)C(=O)NC(=O)NC1=O`, the maximum recommended daily dose (mmol/kg-bw/day) under setting [6] is 0.0127.

With `COc1cc(NS(C)(=O)=O)ccc1Nc1c2ccccc2nc2ccccc12`, under setting [8], the maximum recommended daily dose (mmol/kg-bw/day) was 0.00823.

As for `C[C@]12CCC(=O)C=C1CC[C@@H]1[C@@H]2[C@@H](O)C[C@]2(C=O)[C@@H](C(=O)CO)CC[C@@H]12`, for the setting “TherapeuticCategory: mineralcorticoid”, the maximum recommended daily dose (mmol/kg-bw/day) was 2.31e-05.

On to `CCC(=O)OC(OP(=O)(CCCCc1ccccc1)CC(=O)N1C[C@H](C2CCCCC2)C[C@H]1C(=O)O)C(C)C` (stereo partly drawn), for which, under setting [4], the maximum recommended daily dose (mmol/kg-bw/day) was 0.00236.

Turning to `CC1C(c2ccccc2)OCCN1C` (stereo not drawn), the maximum recommended daily dose (mmol/kg-bw/day) (TherapeuticCategory: anorexic) was 0.0183.

Consider `CNC(=O)c1c(I)c(C(=O)NCC(=O)Nc2c(I)c(C(=O)O)c(I)c(C(=O)NCCO)c2I)c(I)c(N(C)C(C)=O)c1I`, for which the maximum recommended daily dose (mmol/kg-bw/day) under setting [3] was 0.0788.

In the case of `CC(=O)OCC1=C(C(=O)O)N2C(=O)[C@@H](NC(=O)Cc3cccs3)[C@H]2SC1`, the maximum recommended daily dose (mmol/kg-bw/day) under setting [1] was 0.252.

In the case of `CCN(CC)C(=O)Nc1ccc(OCC(O)CNC(C)(C)C)c(C(C)=O)c1` (stereo not drawn), the maximum recommended daily dose (mmol/kg-bw/day) under setting [7] is 0.0176.

Regarding `CNC(=O)Oc1ccc2c(c1)[C@]1(C)CCN(C)[C@@H]1N2C`, for the setting “TherapeuticCategory: cholinergic, miotic”, the maximum recommended daily dose (mmol/kg-bw/day) is 6.07e-05.

With `CN[C@@H]1CCc2[nH]c3ccc(C(N)=O)cc3c2C1`, the maximum recommended daily dose (mmol/kg-bw/day) (TherapeuticCategory: antimigraine) was 0.000514.

Regarding `CC(=O)O[C@H]1C[C@H](O[C@H]2[C@@H](O)C[C@H](O[C@H]3[C@@H](O)C[C@H](OC4CC[C@@]5(C)C(CC[C@@H]6[C@@H]5C[C@@H](O)[C@]5(C)[C@@H](C7=CC(=O)OC7)[C@@H](O)C[C@]65O)C4)O[C@@H]3C)O[C@@H]2C)O[C@H](C)[C@H]1O[C@@H]1O[C@H](CO)[C@@H](O)[C@H](O)[C@H]1O` (stereo partly drawn), the maximum recommended daily dose (mmol/kg-bw/day) under setting [5] was 3.33e-05.

Turning to `Nc1nc(N)c2nc(CNc3ccc(C(=O)NC(CCC(=O)O)C(=O)O)cc3)cnc2n1` (stereo not drawn), the maximum recommended daily dose (mmol/kg-bw/day) (TherapeuticCategory: rodenticide) is 1.89e-05.

Consider `CC(=O)O[C@H]1C[C@@]2(C)[C@@H](C[C@@H](O)[C@H]3[C@@]4(C)CC[C@@H](O)[C@@H](C)[C@@H]4CC[C@@]32C)/C1=C(\CCC=C(C)C)C(=O)O`, for which, under setting [1], the maximum recommended daily dose (mmol/kg-bw/day) is 0.0484.

Regarding `COc1ccc2c(c1OC)C(=O)O[C@@H]2[C@H]1c2c(cc3c(c2OC)OCO3)CCN1C`, the maximum recommended daily dose (mmol/kg-bw/day) (TherapeuticCategory: antitussive) was 0.00605.

For `C1CCC(C(CC2CCCCN2)C2CCCCC2)CC1` (stereo not drawn), the maximum recommended daily dose (mmol/kg-bw/day) (TherapeuticCategory: vasodilator, Ca channel blocker, diuretic) was 0.018.
